Laboratory results from the supplement of paper PMC10307832.

Columns and labels:
Test in all cases: relative viability (nuclei count vs DMSO), 5 days (fraction); higher = more cells survive
Zosuquidar + Dasatinib = compound: O[C@@H](COc1cccc2ncccc12)CN1CCN([C@@H]2c3ccccc3[C@@H]3[C@H](c4ccccc42)C3(F)F)CC1 [Zosuquidar] + Cc1nc(Nc2ncc(C(=O)Nc3c(C)cccc3Cl)s2)cc(N2CCN(CCO)CC2)n1 [Dasatinib] (partner 0.075 µM)
How it was run: (§1)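 Relative viability is defined as nuclei in treated wells over nuclei in vehicle wells. Duplicate plates were run and medians reported. Lung cancer cell lines in 1536-well plates were dosed by pin tool one day after seeding, with one drug or with a fixed anchor-drug dose plus five library-drug doses (not always all listed) in √10 steps, and nuclei were counted after 5 days.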

[1] = compound: COc1cc2nccc(Oc3ccc(NC(=O)C4(C(=O)Nc5ccc(F)cc5)CC4)cc3)c2cc1OC [Cabozantinib] + O=C(CCCCCCC(=O)Nc1ccccc1)NO [Vorinostat] (partner 1 µM)
How it was run: as §1

Kobe2602 + Navitoclax = compound: C1=CC(=CC=C1NC(=S)NNC2=C(C=C(C=C2[N+](=O)[O-])C(F)(F)F)[N+](=O)[O-])F [Kobe2602] + CC1(C)CCC(c2ccc(Cl)cc2)=C(CN2CCN(c3ccc(C(=O)NS(=O)(=O)c4ccc(N[C@H](CCN5CCOCC5)CSc5ccccc5)c(S(=O)(=O)C(F)(F)F)c4)cc3)CC2)C1 [Navitoclax] (partner 0.5 µM)
How it was run: as §1

Kobe2602 + Lapatinib = compound: C1=CC(=CC=C1NC(=S)NNC2=C(C=C(C=C2[N+](=O)[O-])C(F)(F)F)[N+](=O)[O-])F [Kobe2602] + CS(=O)(=O)CCNCc1ccc(-c2ccc3ncnc(Nc4ccc(OCc5cccc(F)c5)c(Cl)c4)c3c2)o1 [Lapatinib] (partner 2 µM)
How it was run: as §1

| Cell Line | relative viability (Zosuquidar + Dasatinib; first compound 0.01 µM) | relative viability (Zosuquidar + Dasatinib; first compound 0.03162 µM) | relative viability (Zosuquidar + Dasatinib; first compound 0.1 µM) | relative viability (Zosuquidar + Dasatinib; first compound 0.3162 µM) | relative viability (Zosuquidar + Dasatinib; first compound 1 µM) | relative viability ([1]; first compound 0.02 µM) | relative viability ([1]; first compound 0.06325 µM) | relative viability ([1]; first compound 0.2 µM) | relative viability ([1]; first compound 0.6325 µM) | relative viability ([1]; first compound 2 µM) | relative viability (Kobe2602 + Navitoclax; first compound 0.2 µM) | relative viability (Kobe2602 + Navitoclax; first compound 0.6325 µM) | relative viability (Kobe2602 + Navitoclax; first compound 2 µM) | relative viability (Kobe2602 + Navitoclax; first compound 6.325 µM) | relative viability (Kobe2602 + Navitoclax; first compound 20 µM) | relative viability (Kobe2602 + Lapatinib; first compound 0.2 µM) | relative viability (Kobe2602 + Lapatinib; first compound 0.6325 µM) | relative viability (Kobe2602 + Lapatinib; first compound 2 µM) | relative viability (Kobe2602 + Lapatinib; first compound 6.325 µM) | relative viability (Kobe2602 + Lapatinib; first compound 20 µM) |
| --- | --- | --- | --- | --- | --- | --- | --- | --- | --- | --- | --- | --- | --- | --- | --- | --- | --- | --- | --- | --- |
| BEN | 0.31 | 0.281 | 0.299 | 0.314 | 0.258 | 0.562 | 0.567 | 0.565 | 0.554 | 0.518 | 0.0992 | 0.0652 | 0.0611 | 0.0659 | 0.0705 | 0.671 | 0.935 | 0.782 | 0.69 | 0.811 |
| CAL-12T | 0.355 | 0.397 | 0.38 | 0.606 | 0.443 | 0.849 | 0.673 | 0.801 | 0.822 | 0.833 | 1.2 | 1.25 | 1.31 | 1.39 | 1.2 | 0.676 | 0.717 | 0.681 | 0.627 | 0.696 |
| COR-L23 | 0.459 | 0.474 | 0.474 | 0.581 | 0.485 | 0.367 | 0.692 | 0.431 | 0.407 | 0.417 | 0.951 | 1.01 | 1.02 | 1.06 | 0.938 | 0.856 | 1.05 | 1.02 | 0.876 | 0.907 |
| COR-L 105 | 0.353 | 0.334 | 0.341 | 0.358 | 0.279 | 0.847 | 1.05 | 0.734 | 0.839 | 0.89 | 0.525 | 0.756 | 0.786 | 0.909 | 0.784 | 0.369 | 0.381 | 0.379 | 0.38 | 0.401 |
| EKVX | 0.694 | 0.38 | 0.558 | 0.657 | 0.488 | 0.725 | 0.868 |  | 0.708 | 0.84 | 0.926 | 0.926 | 0.955 | 0.88 | 0.9 | 0.207 | 0.223 | 0.221 | 0.184 | 0.267 |
| EMC-BAC-2 | 0.325 | 0.34 | 0.373 | 0.339 | 0.325 | 0.279 | 0.678 | 0.608 | 0.456 | 0.422 | 1.16 | 1.17 | 1.11 | 1.13 | 1.16 | 0.89 | 0.935 | 0.904 | 0.904 | 0.909 |
| EPLC-272H | 0.381 | 0.316 | 0.331 | 0.325 | 0.389 | 0.299 | 0.44 | 0.402 | 0.534 | 0.524 | 1.07 | 1.17 | 1.21 | 1.45 | 0.045 | 1.05 | 0.956 | 0.916 | 0.853 | 1.01 |
| H3255 | 0.346 | 0.273 | 0.341 | 0.727 | 0.303 | 0.887 | 0.791 |  | 0.769 | 0.926 | 0.521 | 0.562 | 0.516 | 0.558 | 0.548 | 0.244 | 0.301 | 0.234 | 0.25 | 0.239 |
| HARA | 0.252 |  | 0.26 | 0.257 | 0.27 | 0.576 | 0.52 |  | 0.529 | 0.489 | 1.22 | 1.19 | 1.16 | 1.06 | 1.11 | 0.677 | 0.844 | 0.689 | 0.697 | 0.814 |
| HCC-15 | 0.559 | 0.581 | 0.592 | 0.663 | 0.612 | 0.913 | 0.893 | 0.861 | 0.799 | 0.824 | 0.715 | 0.728 | 0.665 | 0.664 | 0.65 | 0.856 | 0.937 | 0.81 | 0.863 | 0.809 |
| HCC-78 | 0.553 | 0.386 |  | 0.331 | 0.254 |  | 0.415 | 0.394 | 0.344 | 0.295 | 0.761 | 0.893 |  | 0.78 | 0.91 | 1.02 | 0.903 |  | 0.418 | 1.18 |
| HCC-366 | 0.608 | 0.468 | 0.496 | 0.767 | 0.704 | 0.309 | 0.381 | 0.374 | 0.378 | 0.429 | 1.07 | 0.98 | 0.832 | 1.06 | 1.06 | 1.05 | 1.16 | 0.963 | 0.979 | 0.968 |
| HCC-827 | 0.293 | 0.348 | 0.237 | 0.272 | 0.351 | 0.837 | 1.05 |  | 0.785 | 0.526 | 0.987 | 1.13 | 1.06 | 1.03 | 0.981 | 0.189 | 0.211 | 0.231 | 0.177 | 0.227 |
| HOP-62 | 0.702 | 0.528 | 0.594 | 0.679 | 0.633 | 0.661 | 0.764 | 0.669 | 0.603 | 0.555 | 1.01 | 1.03 | 0.986 | 1 | 1.04 | 1.06 | 1.04 | 0.951 | 0.94 | 1.04 |
| LC-2-ad | 0.509 | 0.74 | 0.531 | 0.589 | 0.613 | 0.724 | 0.806 | 0.767 | 0.682 | 0.522 | 0.378 | 0.374 | 0.453 | 0.371 | 0.404 | 1.03 | 0.893 | 0.764 | 0.978 | 0.923 |
| LCLC-97TM1 | 0.776 | 0.756 | 0.73 | 0.761 | 0.898 | 0.24 | 0.823 | 0.739 | 0.781 | 0.751 | 0.253 | 0.462 | 0.531 | 0.282 | 0.317 | 1.05 | 1.01 | 0.817 | 0.965 | 0.893 |
